Experimental data: US12024510B2, “Pyrazolopyridine-diamides, their use as insecticide and processes for preparing the same” (PI INDUSTRIES LTD., priority 2017, dated 2024)

How the values were obtained:
Format in all cases: in vivo
Plutella xylostella = test: whole plant or invertebrate; conditions: foliar, cabbage leaf dip, second instar larvae, dead and moribund combined, 72 h after release
How it was run: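 Leaf-dip bioassay: second-instar larvae, singly, fed on cabbage leaves dipped 10 s in test dispersion (bead-milled, diluted with 0.01% Triton-X to test concentration) and dried 20 min. Held at 25 °C, 70% RH; % mortality counts dead and moribund at 72 h.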

Spodoptera litura = Spodoptera litura diet incorporation method; conditions: third instar larvae, dead and moribund combined, 96 h after release
Method: (§1) Test Solutions were Prepared According to the Procedure Described Herein Below (500 PPM):
(§2) • 1. Eppendorf Vortex mixer (ThermoMixer C) and 1.5 mL Eppendorf tubes • 2. Zirconia (Zirconium-Yttrium) beads having diameter of 0.8 to 1.0 mm • 3. Microscope • 4. Beaker 100 mL • 5. Micro-pipette Reagents: • 1. Surfactant Solution • 2. De-mineralized (DM) Water • 1. Weigh 10 mg of the compound of the present invention to be tested in an Eppendorf Tube. • 2. Add 200 mg of the Surfactant Solution into the tube. • 3. Add 600 mg of Zirconia beads into the above mixture. • 4. Fix the tube in Eppendorf Vortex mixer and start vortexing at 2000 rpm. • 5. Mix on Vortex mixer for 30 minutes. After 30 minutes, observe the sample over a microscope at 400× resolution. • 6. If the Maximum particle size is more than 5 μm or average particle size is more than 2 μm or the particle size distribution is uneven, continue vortexing for another 30 minutes and again check the particle size using the microscope. Continue till the average particle size is below 2 microns. • 7. When the required particle size is achieved, add 1.0 mL DM water into the tube, close the cap, shake the tube thoroughly and transfer the contents, along with the beads, into a beaker. • 8. To rinse the tube, add another 1.0 mL of DM water into the tube, close the cap, shake well and transfer this into the same beaker. • 9. Repeat Step no. 8 one more time so that the tube is rinsed well and the compound of the present invention to be tested is transferred to the beaker. • 10. Add 16.8 mL of DM water into the beaker and stir well. • 11. The homogeneous dispersion can then be decanted into a glass vial, immediately, to separate the Zirconia beads. • 12. Immediately use this sample for biological testing. • 13. Further dilutions can be prepared by taking appropriate quantity of the aliquot of Step 10, immediately after stirring, and diluting as per requirement. The sample solution must be well mixed just before biological testing.
(§3) Diet incorporation method was used, in which semi-synthetic diet was incorporated into the test solution when the temperature is approximately 50° C. in the bioassay containers and stirred thoroughly for properly mixing and then was allowed to cool for 30 min. The solidified diet was cut into equal pieces, and then each piece was transferred in one cell in Bio-assay trays. A single third instar starved larva was released into each of these cells of bioassay trays and the tray was covered with the lid. The bio-assay trays were kept under laboratory conditions at a temperature of 25° C. and Relative Humidity of 70%. Observations on dead, moribund and live larvae were recorded at 96 h after the release of larvae. Percent mortality was calculated by combining dead and moribund larvae. The following compound numbers

Helicoverpa armigera = Helicoverpa armigera diet incorporation method; conditions: third instar larvae, dead and moribund combined, 96 h after release
Method: as §1, §2
as §3, with “which and” for “which”

Row | SMILES | mortality at 300 ppm (Plutella xylostella) [%] | mortality at 300 ppm (Spodoptera litura) [%] | mortality at 300 ppm (Helicoverpa armigera) [%]
1 | Cc1cc2ccnn2c(C(=O)NCC2CCCO2)c1NC(=O)c1cc(Br)nn1-c1ncccc1Cl (racemic) [Compound 189, rac-(R)-6-(3-bromo-1-(3-chloropyridin-2-yl)-1H-pyrazole-5-carboxamido)-5-methyl-N-((tetrahydrofuran-2-yl)methyl)pyrazolo[1,5-a]pyridine-7-carboxamide] | > 70 | > 70 | –
2 | COCCNC(=O)c1c(NC(=O)c2cc(OCC(F)(F)F)nn2-c2ncccc2Cl)c(C)cc2ccnn12 [Compound 17, 6-(1-(3-chloropyridin-2-yl)-3-(2,2,2-trifluoroethoxy)-1H-pyrazole-5-carboxamido)-N-(2-methoxyethyl)-5-methylpyrazolo[1,5-a]pyridine-7-carboxamide] | > 70 | > 70 | –
3 | Cc1cc2ccnn2c(C(=O)NCCC#N)c1NC(=O)c1cc(OCC(F)(F)F)nn1-c1ncccc1Cl [Compound 47, 6-(1-(3-chloropyridin-2-yl)-3-(2,2,2-trifluoroethoxy)-1H-pyrazole-5-carboxamido)-N-(2-cyanoethyl)-5-methylpyrazolo[1,5-a]pyridine-7-carboxamide] | > 70 | > 70 | –
4 | C=CCNC(=O)c1c(NC(=O)c2cc(C(F)(F)F)nn2-c2ncccc2Cl)c(C)cc2ccnn12 [Compound 64, N-allyl-6-(1-(3-chloropyridin-2-yl)-3-(trifluoromethyl)-1H-pyrazole-5-carboxamido)-5-methylpyrazolo[1,5-a]pyridine-7-carboxamide] | – | > 70 | > 70
5 | CCNC(=O)c1c(NC(=O)c2cc(N3CC(F)(F)C3)nn2-c2ncccc2Cl)c(C)cc2ccnn12 [Compound 83, 6-(1-(3-chloropyridin-2-yl)-3-(3,3-difluoroazetidin-1-yl)-1H-pyrazole-5-carboxamido)-N-ethyl-5-methylpyrazolo[1,5-a]pyridine-7-carboxamide] | – | > 70 | –
6 | C=CCNC(=O)c1c(NC(=O)c2cc(N3CC(F)(F)C3)nn2-c2ncccc2Cl)c(C)cc2ccnn12 [Compound 86, N-allyl-6-(1-(3-chloropyridin-2-yl)-3-(3,3-difluoroazetidin-1-yl)-1H-pyrazole-5-carboxamido)-5-methylpyrazolo[1,5-a]pyridine-7-carboxamide] | – | > 70 | –
7 | CCCNC(=O)c1c(NC(=O)c2cc(C(F)(F)F)nn2-c2ncccc2Cl)c(C)cc2ccnn12 [Compound 92, 6-(1-(3-chloropyridin-2-yl)-3-(trifluoromethyl)-1H-pyrazole-5-carboxamido)-5-methyl-N-propylpyrazolo[1,5-a]pyridine-7-carboxamide] | – | > 70 | > 70
8 | CCONC(=O)c1c(NC(=O)c2cc(Br)nn2-c2ncccc2Cl)c(C)cc2ccnn12 [Compound 106, 6-(3-bromo-1-(3-chloropyridin-2-yl)-1H-pyrazole-5-carboxamido)-N-ethoxy-5-methylpyrazolo[1,5-a]pyridine-7-carboxamide] | > 70 | > 70 | –
9 | COc1cc(C(=O)Nc2c(C)cc3ccnn3c2C(=O)NCC(F)(F)F)n(-c2ncccc2Cl)n1 [Compound 110, 6-(1-(3-chloropyridin-2-yl)-3-methoxy-1H-pyrazole-5-carboxamido)-5-methyl-N-(2,2,2-trifluoroethyl)pyrazolo[1,5-a]pyridine-7-carboxamide] | > 70 | > 70 | –
10 | CCNC(=O)c1c(NC(=O)c2cc(Br)nn2-c2ncccc2Cl)c(Cl)cc2ccnn12 [Compound 142, 6-(3-bromo-1-(3-chloropyridin-2-yl)-1H-pyrazole-5-carboxamido)-5-chloro-N-ethylpyrazolo[1,5-a]pyridine-7-carboxamide] | > 70 | > 70 | –
11 | Cc1cc2ccnn2c(C(=O)NC2CC2)c1NC(=O)c1cc(OC2CSC2)nn1-c1ncccc1Cl [Compound 145, 6-(1-(3-chloropyridin-2-yl)-3-(thietan-3-yloxy)-1H-pyrazole-5-carboxamido)-N-cyclopropyl-5-methylpyrazolo[1,5-a]pyridine-7-carboxamide] | – | > 70 | –
12 | CCCC(C)NC(=O)c1c(NC(=O)c2cc(OC)nn2-c2ncccc2Cl)c(C)cc2ccnn12 (centres unmarked) [Compound 184, 6-(1-(3-chloropyridin-2-yl)-3-methoxy-1H-pyrazole-5-carboxamido)-5-methyl-N-(pentan-2-yl)pyrazolo[1,5-a]pyridine-7-carboxamide] | > 70 | > 70 | –
13 | Cc1cc2ccnn2c(C(=O)NC(C)CCC(C)C)c1NC(=O)c1cc(Br)nn1-c1ncccc1Cl (centres unmarked) [Compound 188, 6-(3-bromo-1-(3-chloropyridin-2-yl)-1H-pyrazole-5-carboxamido)-5-methyl-N-(5-methylhexan-2-yl)pyrazolo[1,5-a]pyridine-7-carboxamide] | > 70 | > 70 | –
14 | CCC(C)CNC(=O)c1c(NC(=O)c2cc(OC)nn2-c2ncccc2Cl)c(C)cc2ccnn12 (centres unmarked) [Compound 199, 6-(1-(3-chloropyridin-2-yl)-3-methoxy-1H-pyrazole-5-carboxamido)-5-methyl-N-(2-methylbutyl)pyrazolo[1,5-a]pyridine-7-carboxamide] | > 70 | – | > 70
15 | Cc1cc2ccnn2c(C(=O)NCCC(C)C)c1NC(=O)c1cc(Br)nn1-c1ncccc1Cl [Compound 206, 6-(3-bromo-1-(3-chloropyridin-2-yl)-1H-pyrazole-5-carboxamido)-N-isopentyl-5-methylpyrazolo[1,5-a]pyridine-7-carboxamide] | – | > 70 | –
16 | Cc1cc2ccnn2c(C(=O)NC2CSC2)c1NC(=O)c1cc(Br)nn1-c1ncccc1Cl [Compound 207, 6-(3-bromo-1-(3-chloropyridin-2-yl)-1H-pyrazole-5-carboxamido)-5-methyl-N-(thietan-3-yl)pyrazolo[1,5-a]pyridine-7-carboxamide] | > 70 | > 70 | –
17 | Cc1cc2ccnn2c(C(=O)NC2C[S+]([O-])C2)c1NC(=O)c1cc(Br)nn1-c1ncccc1Cl (centres unmarked) [Compound 209, 6-(3-bromo-1-(3-chloropyridin-2-yl)-1H-pyrazole-5-carboxamido)-5-methyl-N-(1-oxidothietan-3-yl)pyrazolo[1,5-a]pyridine-7-carboxamide] | > 70 | – | > 70
18 | Cc1cc2ccnn2c(C(=O)NC2(C#N)CC2)c1NC(=O)c1cc(Br)nn1-c1ncccc1Cl [Compound 216, 6-(3-bromo-1-(3-chloropyridin-2-yl)-1H-pyrazole-5-carboxamido)-N-(1-cyanocyclopropyl)-5-methylpyrazolo[1,5-a]pyridine-7-carboxamide] | > 70 | > 70 | –
19 | COc1cc(C(=O)Nc2c(C)cc3ccnn3c2C(=O)NC(C)C(F)(F)F)n(-c2ncccc2Cl)n1 (centres unmarked) [Compound 217, 6-(1-(3-chloropyridin-2-yl)-3-methoxy-1H-pyrazole-5-carboxamido)-5-methyl-N-(1,1,1-trifluoropropan-2-yl)pyrazolo[1,5-a]pyridine-7-carboxamide] | – | > 70 | –
20 | COc1cc(C(=O)Nc2c(C)cc3ccnn3c2C(=O)NC2(C)CC2)n(-c2ncccc2Cl)n1 [Compound 219, 6-(1-(3-chloropyridin-2-yl)-3-methoxy-1H-pyrazole-5-carboxamido)-5-methyl-N-(1-methylcyclopropyl)pyrazolo[1,5-a]pyridine-7-carboxamide] | – | > 70 | –
21 | Cc1cc2ccnn2c(C(=O)NC(C)C(F)(F)F)c1NC(=O)c1cc(C(F)(F)F)nn1-c1ncccc1Cl (centres unmarked) [Compound 220, 6-(1-(3-chloropyridin-2-yl)-3-(trifluoromethyl)-1H-pyrazole-5-carboxamido)-5-methyl-N-(1,1,1-trifluoropropan-2-yl)pyrazolo[1,5-a]pyridine-7-carboxamide] | – | > 70 | –
